{
  "source": "paper PMC4820309",
  "about": "“Pseudopterosin A: Protection of Synaptic Function and Potential as a Neuromodulatory Agent” (Marine Drugs, 2016)",
  "key": {"Drosophila larval NMJ [1]": {"tested_on": "Drosophila larval NMJ", "assay": "Synaptic transmission at the Drosophila larval NMJ during H2O2-induced oxidative stress (EJP recording until synaptic failure)", "format": "cell-based, Drosophila melanogaster", "method": "(§1) This study used wild-type Canton-S Drosophila melanogaster third instar wandering larvae (~110 h old). All larvae were raised within an equal population density in 170 mL plastic culture bottles (~100 flies per bottle) containing 50 mL of Nutri-Fly Bloomington Formulation (Genessee Scientific, San Diego, CA, USA) fly food in an incubator at 25 °C under a 12 h:12 h light–dark light cycle.\n(§2) Synaptic transmission was measured in Canton-S animals as previously described. Briefly, individual Canton-S third instar larvae were placed in a glass dissecting dish containing 2 mL of Schneider’s insect medium (Sigma, St. Louis, MO, USA) with the dorsal side up using standard insect pins. A longitudinal cut was made along the dorsal surface and the internal organs and central nervous system were removed to expose the underlying segmental muscles and nerves. An extracellular glass suction electrode was used to stimulate segmental nerves in muscle segments. The postsynaptic excitatory junction potential (EJP) was recorded from muscle 6 in abdominal segment A3 or A4 with a sharp intracellular glass recording electrode filled with 3 M KAc (~40 MΩ). The Schneider’s insect medium was replaced with 2 mL of hemolymph-like (HL-3) saline (1.5 mM CaCl2, 20 mM MgCl2, 5 mM KCl, 70 mM NaCl, 10 mM NaHCO3, 5 mM BES, 115 mM sucrose, 5 mM trehalose·2H2O) made fresh daily. EJP recordings were viewed with an oscilloscope and digitally stored using the Scope program (AD Instruments, Colorado Springs, CO, USA) for analysis. Evoked EJPs from repetitive stimulation (0.3 ms pulses delivered suprathreshold with a 1 Hz frequency) of both axons in larval muscle 6 were recorded in a stop-flow condition until synaptic transmission failure (amplitude < 1 mV).\n(§3) The same electrophysiology preparation assay described above was performed; however, Canton-S larvae were also exposed to oxidative stress, Trolox, and PsA. Oxidative stress was induced in larval preparations by adding either 1 mM H2O2 or 75 µM NaN3 to the HL-3 saline (all chemicals obtained from Sigma, St. Louis, MO, USA). Larvae subjected to oxidative stress and simultaneous drug treatment included one of the following agents dissolved in DMSO: 5 µM Trolox or 1 µM PsA. A dose-response assay from 0.5 to 10 µM was performed to determine the effective concentration of PsA to prolong synaptic transmission at the Drosophila larval NMJ during oxidative stress exposure (Figure 3).\n(§4) All synaptic function data were analyzed using SigmaPlot (Systat Software, San Jose, CA, USA) statistical analysis software. A one-way analysis of variance (ANOVA) test followed by a post hoc multiple comparisons procedure (Holm–Šidák) was used to compare significant differences across all treatment groups. Statistical significance (p < 0.05) was assigned using letter designations, where different letters show significant differences and the same letter assignments are not significant. The letter assignments begin with “A” representing the highest mean, “B” indicating the next highest, and so forth. All vertical bar charts are shown with the means ± SE."}, "Drosophila larval NMJ [2]": {"tested_on": "Drosophila larval NMJ", "assay": "Synaptic transmission at the Drosophila larval NMJ during NaN3-induced oxidative stress (EJP recording until synaptic failure)", "format": "cell-based, Drosophila melanogaster", "conditions": "for average time until synaptic failure: mean ± SE", "method": "as §1, §2, §3, §4"}, "mice": {"tested_on": "mice", "assay": "Tolerability in mice after 50 mg/kg intravenous injection"}, "[3]": {"assay": "Pharmacokinetics and tissue distribution of PsA in mice after IV bolus", "format": "in vivo, mouse", "conditions": "for Kp / half-life: mouse, iv, 50 mg/kg; for AUC (AUClast): linear trapezoidal rule", "method": "After spiking with 10 µL of 17β-estradiol (100 µg/mL), 100 µL plasma or […] of tissue homogenate (prepared as above) was mixed with 300 µL of acetonitrile and vortex-mixed for 15 s. The samples were then extracted with 0.6 mL of ethyl acetate. After centrifugation for 10 min at 2000× g, the upper organic layer was removed and evaporated to dryness under reduced pressure in a vacuum centrifuge. The residue obtained was reconstituted in 80 µL acetonitrile with ultrasonic treatment for 1 min and the derivatization was performed as follows.\nThe HPLC measurements were carried out using a Shimadzu LC-20AT liquid chromatography, which were coupled to a UV-SPD-M20A diode array detector. Data acquisition was performed using EZStart chromatography software package version 7.4. The chromatographic separation of NBD-Cl -derivative of PsA was achieved using Phenomenex Gemini 5 µm C18 110 Å column with a Phenomenex Security Guard C18 guard column (Torrance, CA, USA). The Mobile phase: A: 20 mM AcONH4 (pH = 7.4): ACN (2:1); B: CAN. Running program: 0–5 min, 80%–90% B; 5–7 min, 90% B; 7–12 min, 90%–100% B; 12–15 min, 100%–80% B. The mobile phase flow rate was 1.0 mL/min and the UV detection wavelength was set to 378 nm. Under the chromatographic conditions described, NBD-Cl derivatives of PsA and 17β-estradiol eluted at 7.3 and 5.5 min, respectively.\n(Pharsight, Mountain View, CA, USA)."}, "[4]": {"design": "method as in PMID 22851883", "conditions": "cited from earlier work"}, "[5]": {"conditions": "male, NIH Swiss, mouse brain, 50 mg/kg IV"}, "[6]": {"conditions": "male, NIH Swiss, mouse kidney, 50 mg/kg IV"}, "[7]": {"conditions": "male, NIH Swiss, mouse liver, 50 mg/kg IV"}, "[8]": {"conditions": "male, NIH Swiss, mouse plasma, 50 mg/kg IV bolus, estimate ± standard error"}},
  "note": "Read-outs that look alike come from different tables or passages of the source.",
  "data": [
    {"smiles": "OO", "note": "[H2O2, hydrogen peroxide]", "values": [
      {"measurement": "average time until synaptic transmission failure", "setting": "Drosophila larval NMJ [1]; H2O2 1 mM alone, control 132 ± 3 min", "value": "50 ± 2", "unit": "min"},
      {"measurement": "maximal time of synaptic activity before failure", "setting": "Drosophila larval NMJ [1]; H2O2 1 mM alone, controls 136 or 139 min", "value": 55, "unit": "min"}
    ]},
    {"smiles": "[N-]=[N+]=[N-].[Na+]", "note": "[NaN3, sodium azide, reference compound]", "values": [
      {"measurement": "average time of synaptic activity until failure", "setting": "Drosophila larval NMJ [2]; NaN3 75 µM alone, control 130 ± 3 min", "value": "44 ± 3", "unit": "min"},
      {"measurement": "maximal time of synaptic activity before failure", "setting": "Drosophila larval NMJ [2]; NaN3 75 µM alone, controls 136 or 139 min", "value": 52, "unit": "min"}
    ]},
    {"smiles": "CC(C)=C[C@H]1C[C@H](C)[C@H]2CC[C@H](C)c3c(O[C@@H]4OC[C@@H](O)[C@H](O)[C@H]4O)c(O)c(C)c1c32", "note": "[PsA, pseudopterosin A]", "values": [
      {"measurement": "increase of synaptic tolerance", "setting": "Drosophila larval NMJ [2]; PsA 500 nM during NaN3 75 µM exposure, vs NaN3 alone", "value": 87, "unit": "%"},
      {"measurement": "average time until synaptic failure", "setting": "Drosophila larval NMJ [2]; PsA 500 nM with NaN3 75 µM", "value": "83 ± 5", "unit": "min"},
      {"measurement": "increase of synaptic functional tolerance", "setting": "Drosophila larval NMJ [2]; PsA 1 µM during NaN3 75 µM exposure, vs NaN3 alone", "value": 152, "unit": "%"},
      {"measurement": "maximal synaptic failure time", "setting": "Drosophila larval NMJ [2]; PsA 1 µM with NaN3 75 µM", "value": 122, "unit": "min"},
      {"measurement": "average time until synaptic failure", "setting": "Drosophila larval NMJ [2]; PsA 1 µM with NaN3 75 µM, failure = EJP amplitude < 1 mV", "value": "112 ± 4", "unit": "min"},
      {"measurement": "tolerability of the dose", "setting": "mice", "value": "well tolerated"},
      {"measurement": "Kp", "setting": "[3]; male, NIH Swiss, brain / plasma, mouse brain, 50 mg/kg IV, read-out: Relative Exposure (AUCtissue/AUCplasma)", "value": 1.36},
      {"measurement": "half-life", "setting": "[3]; male, NIH Swiss, brain, mouse brain, 50 mg/kg IV, read-out: Half-life (converted)", "value": 2.91, "unit": "h"},
      {"measurement": "Kp", "setting": "[3]; male, NIH Swiss, brain, liver, kidney / plasma, all tissues (brain, liver, kidney) vs plasma, 50 mg/kg IV, read-out: relative exposure (RE)", "value": "1.27 to 1.36"},
      {"measurement": "Kp", "setting": "[3]; male, NIH Swiss, brain, liver, kidney / plasma, brain, liver and kidney during the elimination phase, 50 mg/kg IV, read-out: tissue/plasma concentration ratios", "value": "> 1"},
      {"measurement": "Kp", "setting": "[3]; male, NIH Swiss, kidney / plasma, mouse kidney, 50 mg/kg IV, read-out: Relative Exposure (AUCtissue/AUCplasma)", "value": 1.28},
      {"measurement": "half-life", "setting": "[3]; male, NIH Swiss, kidney, mouse kidney, 50 mg/kg IV, read-out: Half-life (converted)", "value": 3.98, "unit": "h"},
      {"measurement": "Kp", "setting": "[3]; male, NIH Swiss, liver / plasma, mouse liver, 50 mg/kg IV, read-out: Relative Exposure (AUCtissue/AUCplasma)", "value": 1.27},
      {"measurement": "half-life", "setting": "[3]; male, NIH Swiss, liver, mouse liver, 50 mg/kg IV, read-out: Half-life (converted)", "value": 3.16, "unit": "h"},
      {"measurement": "half-life", "setting": "[3]; male, NIH Swiss, plasma, brain, liver, kidney, mouse plasma and tissues (brain, liver, kidney), 50 mg/kg IV, read-out: elimination half-life", "value": "3 to 4", "unit": "h"},
      {"measurement": "half-life", "setting": "[3]; male, NIH Swiss, plasma, mouse plasma, 50 mg/kg IV bolus, two-compartment model, estimate ± standard error, read-out: Distribution Half-life (converted)", "value": "0.05 ± 0.005", "unit": "h"},
      {"measurement": "half-life", "setting": "[3]; male, NIH Swiss, plasma, mouse plasma, 50 mg/kg IV bolus, two-compartment model, estimate ± standard error, read-out: Elimination Half-life (converted)", "value": "3.21 ± 0.3", "unit": "h"},
      {"measurement": "Cmax", "setting": "[3]; [5]", "value": 10000, "unit": "ng/g"},
      {"measurement": "Tmax", "setting": "[3]; [5]", "value": 0.5, "unit": "h"},
      {"measurement": "Cmax", "setting": "[3]; [6]", "value": 3000, "unit": "ng/g"},
      {"measurement": "Tmax", "setting": "[3]; [6]", "value": 1.5, "unit": "h"},
      {"measurement": "Cmax", "setting": "[3]; [7]", "value": 10100, "unit": "ng/g"},
      {"measurement": "Tmax", "setting": "[3]; [7]", "value": 0.17, "unit": "h"},
      {"measurement": "AUC", "setting": "[3]; [8]", "value": "14400 ± 950", "unit": "ng·h/mL"},
      {"measurement": "Cmax", "setting": "[3]; [8]", "value": "85.5 ± 7.64", "unit": "µg/mL"},
      {"measurement": "clearance", "setting": "[3]; [8]", "value": 58, "unit": "mL/min/kg"},
      {"measurement": "Vd", "setting": "[3]; male, NIH Swiss, mouse plasma, 50 mg/kg IV bolus, estimate ± standard error, read-out: Vss", "value": "10.1 ± 1.35", "unit": "L/kg"},
      {"measurement": "time of peak mean concentration", "setting": "[3]; mouse brain, 50 mg/kg IV", "value": 30, "unit": "min"},
      {"measurement": "AUC (AUClast)", "setting": "[3]; mouse brain, 50 mg/kg IV", "value": 19.49, "unit": "mg·h/kg"},
      {"measurement": "time of peak mean concentration", "setting": "[3]; mouse kidney, 50 mg/kg IV", "value": 90, "unit": "min"},
      {"measurement": "AUC (AUClast)", "setting": "[3]; mouse kidney, 50 mg/kg IV", "value": 18.37, "unit": "mg·h/kg"},
      {"measurement": "time of peak mean concentration", "setting": "[3]; mouse liver, 50 mg/kg IV", "value": 10.2, "unit": "min"},
      {"measurement": "AUC (AUClast)", "setting": "[3]; mouse liver, 50 mg/kg IV", "value": 18.20, "unit": "mg·h/kg"},
      {"measurement": "lipophilicity", "setting": "[4]", "value": "high lipophilicity"},
      {"measurement": "increase of synaptic tolerance", "setting": "Drosophila larval NMJ [1]; PsA 1 µM during H2O2 1 mM exposure, vs H2O2 alone", "value": 26, "unit": "%"},
      {"measurement": "maximal synaptic failure time", "setting": "Drosophila larval NMJ [1]; PsA 1 µM with H2O2 1 mM", "value": 70, "unit": "min"},
      {"measurement": "average time until synaptic transmission failure", "setting": "Drosophila larval NMJ [1]; PsA 1 µM with H2O2 1 mM, mean ± SE", "value": "63 ± 2", "unit": "min"}
    ]},
    {"smiles": "Cc1c(C)c2c(c(C)c1O)CCC(C)(C(=O)O)O2", "note": "(centres unmarked) [Trolox, 6-hydroxy-2,5,7,8-tetramethylchromane-2-carboxylic acid, reference compound]", "values": [
      {"measurement": "increase of synaptic activity", "setting": "Drosophila larval NMJ [2]; Trolox 5 µM during NaN3 75 µM exposure, vs NaN3 alone", "value": 25, "unit": "%"},
      {"measurement": "maximal time until synaptic breakdown", "setting": "Drosophila larval NMJ [2]; Trolox 5 µM with NaN3 75 µM", "value": 64, "unit": "min"},
      {"measurement": "average time until synaptic failure", "setting": "Drosophila larval NMJ [2]; Trolox 5 µM with NaN3 75 µM", "value": "55 ± 3", "unit": "min"},
      {"measurement": "increase of synaptic function", "setting": "Drosophila larval NMJ [1]; Trolox 5 µM during H2O2 1 mM exposure, vs H2O2 alone", "value": 60, "unit": "%"},
      {"measurement": "maximal time until synaptic breakdown", "setting": "Drosophila larval NMJ [1]; Trolox 5 µM with H2O2 1 mM", "value": 85, "unit": "min"},
      {"measurement": "average time until synaptic transmission failure", "setting": "Drosophila larval NMJ [1]; Trolox 5 µM with H2O2 1 mM, mean ± SE", "value": "80 ± 2", "unit": "min"}
    ]}
  ]
}
